Numbers after ± are expanded uncertainties.
Settings: 101.33 kPa, Liquid; for viscosity: Capillary tube (Ostwald / Ubbelohde) method; for mass density: Vibrating tube method

| Structure (SMILES) | viscosity (298.15 K) | mass density (298.15 K) | viscosity (303.15 K) | mass density (303.15 K) | viscosity (313.15 K) | mass density (313.15 K) | viscosity (323.15 K) | mass density (323.15 K) |
| --- | --- | --- | --- | --- | --- | --- | --- | --- |
| CN1CCOCC1 [N-methylmorpholine] | 0.881 ± 0.012 mPa·s | 914.06 ± 0.74 kg/m3 | 0.864 ± 0.012 mPa·s | 909.44 ± 0.73 kg/m3 | 0.833 ± 0.011 mPa·s | 899.76 ± 0.72 kg/m3 | 0.814 ± 0.011 mPa·s | 890.85 ± 0.71 kg/m3 |
| c1ccccc1 [benzene] | 0.601 ± 0.007 mPa·s | 873.58 ± 0.09 kg/m3 | 0.563 ± 0.007 mPa·s | 868.23 ± 0.09 kg/m3 | 0.494 ± 0.007 mPa·s | 857.38 ± 0.1 kg/m3 | 0.436 ± 0.007 mPa·s | 846.62 ± 0.1 kg/m3 |
| C1CCCCC1 [cyclohexane] | 0.904 ± 0.009 mPa·s | 773.25 ± 0.24 kg/m3 | 0.809 ± 0.009 mPa·s | 769.18 ± 0.24 kg/m3 | 0.698 ± 0.008 mPa·s | 759.58 ± 0.24 kg/m3 | 0.604 ± 0.008 mPa·s | 750.03 ± 0.24 kg/m3 |
| Cc1ccccc1 [toluene] | 0.553 ± 0.007 mPa·s | 862.11 ± 0.23 kg/m3 | 0.523 ± 0.007 mPa·s | 857.62 ± 0.23 kg/m3 | 0.471 ± 0.007 mPa·s | 847.87 ± 0.25 kg/m3 | 0.422 ± 0.007 mPa·s | 838.42 ± 0.29 kg/m3 |
